c1ccc(-c2ccc(C(c3ccccc3)n3ccnc3)cc2)cc1 (stereo not given)
solubility (mole fraction)
Conditions | 278.15 K | 283.15 K | 288.15 K | 293.15 K | 298.15 K | 303.15 K | 308.15 K | 313.15 K | 318.15 K
in isopropanol | 0.00118 | 0.00165 | 0.00222 | 0.00309 | 0.0041 | 0.00554 | 0.00722 | 0.00951 | 0.0123
in methanol | 0.00228 | 0.00304 | 0.00395 | 0.00517 | 0.0066 | 0.00844 | 0.0106 | 0.0135 | 0.0166
in n-propanol | 0.00142 | 0.00196 | 0.00266 | 0.00355 | 0.00468 | 0.00612 | 0.00799 | 0.0106 | 0.0134
in propylene glycol | 0.0017 | 0.00233 | 0.00316 | 0.00418 | 0.00547 | 0.00707 | 0.00916 | 0.0117 | 0.0149
in water | 6.6e-06 | 9.22e-06 | 1.27e-05 | 1.7e-05 | 2.05e-05 | 2.88e-05 | 3.87e-05 | 4.82e-05 | 6.11e-05

From BigSolDB 2.1
